Reference: ChEMBL document CHEMBL5096227, “Discovery of Ervogastat (PF-06865571): A Potent and Selective Inhibitor of Diacylglycerol Acyltransferase 2 for the Treatment of Non-alcoholic Steatohepatitis” (J Med Chem, 2022)

Tests used:
[1] = Apparent permeability in MDCK-II cells; assay type: ADME, cell-based, Canis lupus familiaris; settings: dog
[2] = Apparent intrinsic clearance in cryopreserved human hepatocytes measured per million cells at 1 uM incubated for 4 hrs by LC-MS/MS analysis; assay type: ADME, cell-based, Hepatocyte; settings: for hepatocyte CLint at 1 µM: cryopreserved human hepatocytes, read-out: CLH
physchem = settings: buffer, pH 7.4
Description: Lipophilicity, logD of compound at pH 7.4 by shake flask method

[3] = target: T1, Diacylglycerol O-acyltransferase 2 (Homo sapiens, UniProt Q96PD7); test: Inhibition of human DGAT2 expressed in Sf9 insect cell membrane using [1-14C]decanoyl-CoA and 1,2-didecanoyl-sn-glycerol as substrates assessed as incorporation of [1-14C]decanoyl into triacylglycerol preincubated for 120 mins followed by substrate addition and measured after 40 mins by scintillation counting method; assay type: cell membranes
T1 sequence (Q96PD7 whole entry): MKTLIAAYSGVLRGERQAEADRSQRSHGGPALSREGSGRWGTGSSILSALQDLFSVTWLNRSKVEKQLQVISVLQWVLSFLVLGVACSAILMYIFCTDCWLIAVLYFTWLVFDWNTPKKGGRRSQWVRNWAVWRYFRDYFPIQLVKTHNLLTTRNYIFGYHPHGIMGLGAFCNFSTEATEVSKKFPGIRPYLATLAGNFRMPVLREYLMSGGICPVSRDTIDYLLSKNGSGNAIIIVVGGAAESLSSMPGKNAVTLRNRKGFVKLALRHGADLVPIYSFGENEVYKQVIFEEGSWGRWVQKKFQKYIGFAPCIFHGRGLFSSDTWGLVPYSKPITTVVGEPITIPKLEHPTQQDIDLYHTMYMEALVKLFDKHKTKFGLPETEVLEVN

[4] = Apparent intrinsic clearance in human liver microsomes in presence of NADPH; assay type: ADME, Microsome; settings: read-out: CLH
[5] = Lipophilicity, logD of compound; assay type: physicochemical; settings: octanol/water
[6] = Apparent permeability of compound; assay type: ADME; settings: not told
[7] = Apparent intrinsic clearance in human liver microsomes; assay type: ADME, Microsome; settings: read-out: CLH
[8] = Apparent intrinsic clearance in human hepatocytes measured per million cells; assay type: ADME, cell-based, Hepatocyte; settings: read-out: CLH
Cytochrome P450 2C9 = Cytochrome P450 2C9 (Homo sapiens, UniProt P11712); test: Reversible inhibition of CYP2C9 in pooled human liver microsomes using 4-Hydroxydiclofenac as substrate incubated for 10 mins in presence of NADPH by HPLC-MS/MS analysis; assay type: ADME, Microsome
[9] = Drug metabolism in cryopreserved human hepatocytes assessed as O-dearylation mediated oxidative metabolite formation at 10 uM measured for 240 mins by HPLC-UV-MS analysis; assay type: ADME, cell-based, Hepatocyte; settings: 4 h
[10] = Oral bioavailability in Wistar Han rat at 5 mg/kg; assay type: ADME, organism-based; settings: in vivo
[11] = Volume of distribution at steady state in Wistar Han rat; assay type: ADME; settings: in vivo, read-out: Vdss
Cytochrome P450 2B6 = target: T2, Cytochrome P450 2B6 (Homo sapiens, UniProt P20813); test: Reversible inhibition of CYP2B6 in pooled human liver microsomes; assay type: ADME, Microsome
T2 sequence (P20813 whole entry): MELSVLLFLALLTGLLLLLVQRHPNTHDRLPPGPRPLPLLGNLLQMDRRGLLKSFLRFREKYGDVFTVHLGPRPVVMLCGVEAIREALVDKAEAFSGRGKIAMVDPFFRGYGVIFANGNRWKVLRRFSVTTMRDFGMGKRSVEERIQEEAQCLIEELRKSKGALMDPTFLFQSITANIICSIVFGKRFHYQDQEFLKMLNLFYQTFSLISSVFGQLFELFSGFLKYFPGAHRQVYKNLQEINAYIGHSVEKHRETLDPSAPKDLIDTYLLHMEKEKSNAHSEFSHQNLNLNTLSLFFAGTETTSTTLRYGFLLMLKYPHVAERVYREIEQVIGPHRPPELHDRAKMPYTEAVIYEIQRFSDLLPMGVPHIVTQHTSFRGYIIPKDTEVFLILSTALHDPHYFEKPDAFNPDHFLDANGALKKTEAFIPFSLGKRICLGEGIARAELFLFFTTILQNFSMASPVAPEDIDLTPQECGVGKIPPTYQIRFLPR

[12] = Drug metabolism in cryopreserved human hepatocytes assessed as O-deethylation mediated pyridin-3-ol metabolite formation at 10 uM measured for 240 mins by HPLC-UV-MS analysis; assay type: ADME, cell-based, Hepatocyte; settings: 4 h
[13] = Half life in Wistar Han rat; assay type: ADME; settings: in vivo
[14] = Dissociation constant, pKa of compound; assay type: physicochemical
Cytochrome P450 2D6 = Cytochrome P450 2D6 (Homo sapiens, UniProt P10635); test: Reversible inhibition of CYP2D6 in pooled human liver microsomes using dextrorphan as substrate incubated for 14 mins in presence of NADPH by HPLC-MS/MS analysis; assay type: ADME, Microsome
Cytochrome P450 2C19 = Cytochrome P450 2C19 (Homo sapiens, UniProt P33261); test: Reversible inhibition of CYP2C19 in pooled human liver microsomes using 4-Hydroxymephenytoin as substrate incubated for 20 mins in presence of NADPH by HPLC-MS/MS analysis; assay type: ADME, Microsome
CYP3A4/5 = CYP3A4/5 (Homo sapiens, UniProt P08684+P20815); test: Reversible inhibition of CYP3A4/5 in pooled human liver microsomes; assay type: ADME, Microsome
[15] = Half life in human; assay type: ADME
[16] = target: T3, Diacylglycerol O-acyltransferase 1 (Homo sapiens, UniProt O75907); test: Inhibition of human DGAT1 using [1-14C]decanoyl-CoA and 1,2-didecanoyl-sn-glycerol as substrates assessed as incorporation of [1-14C]decanoyl […] preincubated for 30 mins followed by substrate addition and measured after 30 to 90 mins by scintillation counting method
T3 sequence (O75907 whole entry): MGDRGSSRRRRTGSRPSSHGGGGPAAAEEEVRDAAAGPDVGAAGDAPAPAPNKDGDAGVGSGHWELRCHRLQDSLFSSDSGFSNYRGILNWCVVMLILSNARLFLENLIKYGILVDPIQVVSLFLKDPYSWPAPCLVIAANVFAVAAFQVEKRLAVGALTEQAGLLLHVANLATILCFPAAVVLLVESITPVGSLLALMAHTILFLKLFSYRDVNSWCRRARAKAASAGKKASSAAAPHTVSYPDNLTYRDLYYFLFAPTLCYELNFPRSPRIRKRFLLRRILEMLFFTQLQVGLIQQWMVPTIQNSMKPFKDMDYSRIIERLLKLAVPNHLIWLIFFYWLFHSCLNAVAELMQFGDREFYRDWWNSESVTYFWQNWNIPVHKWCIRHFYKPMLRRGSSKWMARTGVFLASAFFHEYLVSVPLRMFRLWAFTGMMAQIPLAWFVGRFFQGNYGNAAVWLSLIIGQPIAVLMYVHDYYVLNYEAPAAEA

Cytochrome P450 1A2 = target: T4, Cytochrome P450 1A2 (Homo sapiens, UniProt P05177); test: Reversible inhibition of CYP1A2 in pooled human liver microsomes using […] as substrate incubated for 20 mins in presence of NADPH by HPLC-MS/MS analysis; assay type: ADME, Microsome
T4 sequence (P05177 whole entry): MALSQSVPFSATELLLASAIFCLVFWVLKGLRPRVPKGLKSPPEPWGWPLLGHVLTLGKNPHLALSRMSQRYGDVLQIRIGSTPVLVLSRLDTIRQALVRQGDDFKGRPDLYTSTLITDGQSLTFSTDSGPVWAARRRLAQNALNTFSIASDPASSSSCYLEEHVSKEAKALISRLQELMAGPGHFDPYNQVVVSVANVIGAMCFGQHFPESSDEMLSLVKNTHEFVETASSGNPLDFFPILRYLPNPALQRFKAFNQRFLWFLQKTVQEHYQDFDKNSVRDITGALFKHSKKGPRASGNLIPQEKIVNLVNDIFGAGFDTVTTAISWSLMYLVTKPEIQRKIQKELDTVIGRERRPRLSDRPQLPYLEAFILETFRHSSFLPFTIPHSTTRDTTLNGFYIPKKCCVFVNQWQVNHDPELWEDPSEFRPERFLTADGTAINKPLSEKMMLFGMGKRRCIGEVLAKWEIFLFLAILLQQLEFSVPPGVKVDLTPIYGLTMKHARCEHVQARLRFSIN

Cytochrome P450 2C8 = target: T5, Cytochrome P450 2C8 (Homo sapiens, UniProt P10632); test: Reversible inhibition of CYP2C8 in pooled human liver microsomes using desethylamodiaquine as substrate incubated for 10 mins in presence of NADPH by HPLC-MS/MS analysis; assay type: ADME, Microsome
T5 sequence (P10632 whole entry): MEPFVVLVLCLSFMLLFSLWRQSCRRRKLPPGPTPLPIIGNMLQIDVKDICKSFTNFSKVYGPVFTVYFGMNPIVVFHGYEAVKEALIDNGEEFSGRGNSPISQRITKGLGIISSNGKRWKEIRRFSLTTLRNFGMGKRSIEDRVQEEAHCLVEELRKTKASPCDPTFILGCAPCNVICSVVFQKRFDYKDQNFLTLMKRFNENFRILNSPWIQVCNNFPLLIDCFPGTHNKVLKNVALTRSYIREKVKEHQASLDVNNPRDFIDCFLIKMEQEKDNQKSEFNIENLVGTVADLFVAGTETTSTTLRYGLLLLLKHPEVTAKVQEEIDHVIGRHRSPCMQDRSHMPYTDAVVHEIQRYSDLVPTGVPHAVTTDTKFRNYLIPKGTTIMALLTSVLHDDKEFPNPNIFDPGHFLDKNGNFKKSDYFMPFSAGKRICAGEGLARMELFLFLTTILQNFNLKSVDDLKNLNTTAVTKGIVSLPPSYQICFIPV

[17] = Plasma clearance in Wistar Han rat; assay type: ADME
[18] = Drug metabolism in cryopreserved human hepatocytes assessed as oxidation of primary alcohol to carboxylic acid mediated metabolite formation at 10 uM measured for 240 mins by HPLC-UV-MS analysis; assay type: ADME, cell-based, Hepatocyte; settings: 4 h

Chain of Cytochrome P450 2D6 (P10635 whole entry): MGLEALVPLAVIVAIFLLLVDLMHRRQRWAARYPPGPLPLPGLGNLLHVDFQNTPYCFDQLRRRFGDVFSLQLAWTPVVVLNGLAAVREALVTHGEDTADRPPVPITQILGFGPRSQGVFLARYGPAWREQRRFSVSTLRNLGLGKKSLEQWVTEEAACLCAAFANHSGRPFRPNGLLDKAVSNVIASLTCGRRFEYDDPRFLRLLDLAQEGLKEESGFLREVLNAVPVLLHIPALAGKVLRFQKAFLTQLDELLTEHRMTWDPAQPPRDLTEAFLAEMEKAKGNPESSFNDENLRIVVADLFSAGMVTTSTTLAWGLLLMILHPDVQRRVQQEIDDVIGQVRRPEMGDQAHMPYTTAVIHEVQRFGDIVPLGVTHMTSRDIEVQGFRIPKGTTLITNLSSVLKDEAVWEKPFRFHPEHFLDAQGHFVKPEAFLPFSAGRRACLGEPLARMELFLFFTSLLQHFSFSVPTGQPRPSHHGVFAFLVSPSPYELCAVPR
Chain of Cytochrome P450 2C19 (P33261 whole entry): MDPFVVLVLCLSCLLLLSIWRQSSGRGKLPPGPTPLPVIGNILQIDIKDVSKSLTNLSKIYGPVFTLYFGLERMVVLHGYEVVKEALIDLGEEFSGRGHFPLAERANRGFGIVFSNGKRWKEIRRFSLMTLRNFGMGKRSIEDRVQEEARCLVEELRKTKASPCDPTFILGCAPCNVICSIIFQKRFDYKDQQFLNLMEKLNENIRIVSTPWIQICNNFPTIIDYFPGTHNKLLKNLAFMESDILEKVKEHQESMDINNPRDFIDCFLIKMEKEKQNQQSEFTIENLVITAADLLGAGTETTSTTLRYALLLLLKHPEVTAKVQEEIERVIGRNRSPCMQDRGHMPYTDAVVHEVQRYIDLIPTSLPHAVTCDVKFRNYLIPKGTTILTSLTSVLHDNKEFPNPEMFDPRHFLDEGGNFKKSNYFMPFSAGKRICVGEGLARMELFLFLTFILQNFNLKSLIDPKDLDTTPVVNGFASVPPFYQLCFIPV
Chain of Cytochrome P450 2C9 (P11712 whole entry): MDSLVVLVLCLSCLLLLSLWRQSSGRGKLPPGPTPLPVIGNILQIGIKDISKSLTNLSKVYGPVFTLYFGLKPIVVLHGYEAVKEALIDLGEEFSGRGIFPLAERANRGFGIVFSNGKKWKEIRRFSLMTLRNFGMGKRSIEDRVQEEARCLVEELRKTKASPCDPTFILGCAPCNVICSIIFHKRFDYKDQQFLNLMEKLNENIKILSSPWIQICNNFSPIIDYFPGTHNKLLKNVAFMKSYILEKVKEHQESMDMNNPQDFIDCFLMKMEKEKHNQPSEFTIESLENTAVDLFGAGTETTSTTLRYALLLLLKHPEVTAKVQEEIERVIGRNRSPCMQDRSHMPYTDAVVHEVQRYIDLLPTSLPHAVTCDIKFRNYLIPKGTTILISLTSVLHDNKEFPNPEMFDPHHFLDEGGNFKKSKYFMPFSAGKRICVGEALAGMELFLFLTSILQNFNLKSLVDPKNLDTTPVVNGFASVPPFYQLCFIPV

| Structure (SMILES) | Papp ([1]; MDCK, read-out: Papp) [×10⁻⁶ cm/s] | hepatocyte CLint at 1 µM [2] [µL/min/1e6 cells] | logD (physchem) | IC50 [3] [µM] | also measured |
| --- | --- | --- | --- | --- | --- |
| CCOc1cccnc1Oc1cncc(-c2ncc(C(=O)NC3(CO)CCOC3)cn2)c1 (stereo in doubt; 4) | 4 | < 3 | 1.6 | – | – |
| CCOc1cccnc1Oc1cncc(-c2ncc(C(=O)NC3CC(=O)N(C)C3)cn2)c1 (racemic) | 1 | < 3 | 1.7 | 0.501 | – |
| CCOc1cccnc1Oc1cncc(-c2ncc(C(=O)NC3CCCOC3)cn2)c1 (racemic) | 23 | 11 | 2.2 | 0.0115 | – |
| CCOc1ccccc1O[C@@H]1CCCN(c2ncc(C(=O)NC(C)(C)CO)cn2)C1 | 19 | – | 2.8 | – | microsomal CLint [4]: 121 µL/min/mg |
| CCOc1ccccc1O[C@@H]1CCCN(c2ncc(C(=O)NCc3cccc(C(=O)O)c3)cn2)C1 | – | – | – | – | logD [5]: 0.7; Papp [6]: 2 ×10⁻⁶ cm/s; microsomal CLint [7]: 9 µL/min/mg; hepatocyte CLint [8]: < 12 µL/min/1e6 cells |
| CCOc1cccnc1Oc1cncc(-c2ncc(C(=O)N[C@@H]3CCOC3)cn2)c1 | 14 | 5 | 1.9 | – | – |
| CCOc1cccnc1Oc1cncc(-c2ncc(C(=O)NC3(CO)CCOC3)cn2)c1 (stereo in doubt; 5) | – | – | – | – | Papp ([1]; mdck-ii): 3 10^-6 cm/s; CLH ([2]; hepatocytes, 4 h, 1 µM): < 4 µL/min |
| CCOc1cccnc1Oc1cncc(-c2ncc(C(=O)NC3CCOCC3)cn2)c1 | 20 | 7 | 2.6 | 0.353 | – |
| CCOc1cccnc1Oc1cncc(-c2ncc(C(=O)NC3CCS(=O)(=O)C3)cn2)c1 (racemic) | 5 | 5 | 1.6 | – | – |
| CCOc1cccnc1O[C@@H]1CCCN(c2ncc(C(=O)NC(C)(C)CO)cn2)C1 | – | – | 1.8 | 0.0318 | microsomal CLint [4]: 108 µL/min/mg |
| CCOc1cccnc1Oc1cncc(-c2ncc(C(=O)NC(C)(C)CS(C)(=O)=O)cn2)c1 | 15 | 8 | 1.9 | – | – |
| CCNC(=O)c1cnc(-c2cncc(Oc3ncccc3OCC)c2)nc1 | 15 | 7 | – | 0.0846 | – |
| CCOc1cccnc1Oc1cncc(-c2ncc(C(=O)NC(C)(C)CO)cn2)c1 | 21 | 8 | 2 | 0.0066 | IC50 (Cytochrome P450 2C9): 7.8 µM; Drug metabolism [9]: Metabolite_Notdetected; bioavailability [10]: 29%; Vd [11]: 1.2 L/kg; IC50 (Cytochrome P450 2B6): > 24 µM; Drug metabolism [12]: Metabolite_Detected; half-life [13]: 24 min; pKa [14]: 2.5; IC50 (Cytochrome P450 2D6): > 30 µM; IC50 (Cytochrome P450 2C19): > 30 µM; IC50 (CYP3A4/5): > 30 µM; half-life [15]: > 240 min; microsomal CLint [4]: 14 µL/min/mg; IC50 [16]: > 50 µM; IC50 (Cytochrome P450 1A2): > 30 µM; IC50 (Cytochrome P450 2C8): > 30 µM; clearance [17]: 57 mL/min/kg; Drug metabolism [18]: Metabolite_Detected |
